Drawing on patent publication US6391284B1, “Nonalcoholic pharmaceutical preparations from formulations including alcohol and process for the preparation thereof” (priority 2001, dated 2002), this text covers water solubility for 1 compound.

The structures appear in SMILES notation.

The nature of this series: Solubility in water. It counts as physicochemical.

As for `CC1=C(/C=C/C(C)=C/C=C/C(C)=C\C(=O)O)C(C)(C)CCC1` [cis-retinoic acid], the water solubility entry is given as “extremely water insoluble”.
